In patent US7241439B2, “Biopesticide compositions” (Faculte Universitaire des Sciences Agronomiques de Gembloux, priority 2001, dated 2007):
Counter-ions that a name gives are not always drawn.

Assays:
P. digitatum = test: Protection of wounded oranges against green mould; format: in vivo, Penicillium digitatum strain CBS31948; details: Table 7, GA 0.01% w/v
Method: Oranges (Citrus sinensis (L.) Ohl. cv. Valencia) were bought from wholesale dealers and stored in a cold room at 4±1° C. for maximum 15 days before use.
Penicillium digitatum strain CBS31948 (green mould of oranges) was obtained from the CentraalBureau Schimmelcultures, Netherlands collection and initially isolated from Citrus fruits. Conidia from the pathogenic strain were put in suspension in a glycerol solution (25%) and stored at −70° C. Starting from this stored material, the fungal strain was transferred to oat medium at 25° C. Conidial suspensions were prepared in an aqueous sterile solution of Tween 20 (0.05%). Before use, suspensions have been adjusted to the required concentration (10^5 spores/ml) using a Barker cell.
The antagonistic yeast strain P. anomala “strain K” was obtained as in example 1. C. oleophila strain I-182 commercialised under the name Aspire™ was obtained from Ecogen Inc. Both microorganisms were subcultured as in example 1.
Fruits were disinfected and wounded as in example 1. […] The percentage of protection is calculated as in example 1.
Vegetal material, pathogens, antagonistic agents and treatment method were as in example 3. […] The effect of the compositions against postharvest rots caused by P. digitatum has been evaluated under controlled conditions.

B. cinerea = test: Protection of wounded apples against postharvest rot (lesion diameter); format: in vivo
Method: (§1) Apples (Malus domestics Borkh cv. Golden) were harvested from commercial orchards maintained with standard cultural practices in Belgium and placed in regular long term storage. Commercial class I fruits were used. They were bought from wholesale dealers and stored in a cold room at 4±1° C. for maximum 15 days before use.
(§2) B. cinerea (grey mould) and Penicillium expansum (blue mould) strains were initially isolated from strawberries and apples respectively in Gembloux.
(§3) Conidia from the two pathogenic strains were put in suspension in a glycerol solution (25%) and stored at −70° C. Another storage method consisted of growing the pathogen on Potato Dextrose Agar (PDA) in tubes, covering it then by paraffin oil and keeping the tubes at 25° C. Starting from this stored material, the two fungal strains were transferred to oat medium at 25° C. Conidial suspensions were prepared in an aqueous sterile solution of Tween 20 (0.05%), and were adjusted to the required concentration (10^6 spores/ml) using a Bärker cell.
(§4) Before use, the micro-organisms were subcultured three times successively at 24 hours intervals on PDA (Potato Dextrose Agar). At the third generation, yeast cells were removed from the culture medium and suspended in isotonic water (NaCl 0.85%). Suspension concentrations were adjusted to the required values after the establishment of a regression line in relation with the micro-organisms suspension absorbance (at 595 nm) and the number of colony forming units (cfu) of the same suspension spread onto PDA.
(§5) Fruits were disinfected by dipping for 2 minutes in sodium hypochlorite (10% of the commercial product). They were rinsed in sterile water and dried out under laminar flux before being wounded by removing 6 mm diameter and 3 mm deep blocks of tissue from two sites 4-5 cm apart along the equatorial line of the fruits.
(§6) The wounds were treated by application of 50 μl of compositions of the state of the art or compositions of the invention.
(§7) After a 24 h at 20° C. incubation period in plastic boxes, the wounds have been inoculated with 50 μl of the respective conidial suspensions of the pathogens. The fruits were incubated during one to three weeks at 25° C.
The diameters of the lesions developing around the wounds were measured after 7, 10, 14 and up to 20 days after treatment. Four fruits (8 wounds) were used per treatment.
(§8) The percentage of protection provided by the different treatments is calculated from the diameter of lesion caused by the fruit rot agent after the incubation time using the following formula:
(§9) [formula] where Y is the percentage of protection; DT is the mean diameter of lesions for the untreated control and Dx is the mean diameter of lesions for the treated fruits.
(§10) Vegetal material, pathogens, antagonistic micro-organisms and treatment method were as in example 1. The wounds were treated by application of 50 pi of compositions of the state of the art or compositions of the invention. The effect of the compositions against postharvest apple rots caused by B. cinerea has been evaluated under controlled conditions.

P. expansum = test: as above; format: in vivo, Penicillium expansum
Method: as §1, §2, §3, §4, §5, §6, §7
[…] Four fruits (8 wounds) were used per treatment.
as §8, §9, §10

[1] = Table 12, M (mannans) 0.02% w/v

O.O=C[C@H](O)[C@@H](O)[C@@H](O)[C@H](O)C(=O)O [GA, galacturonic acid (monohydrate)]
% protection against P. digitatum after 7 days (P. digitatum): 58%
% protection against P. digitatum after 10 days (P. digitatum): 36%
% protection against B. cinerea after 7 days (B. cinerea; Table 1, GA 0.01% w/v): 49%
% protection against B. cinerea after 10 days (B. cinerea; Table 1, GA 0.01% w/v): 42%
% protection against B. cinerea after 14 days (B. cinerea; Table 1, GA 0.01% w/v): 22%
% protection against B. cinerea after 20 days (B. cinerea; Table 1, GA 0.01% w/v): 2%
% protection against B. cinerea after 7 days (B. cinerea; Table 2, GA 0.001% w/v): 87%
% protection against B. cinerea after 10 days (B. cinerea; Table 2, GA 0.001% w/v): 47%
% protection against B. cinerea after 14 days (B. cinerea; Table 2, GA 0.001% w/v): 33%
% protection against B. cinerea after 20 days (B. cinerea; Table 2, GA 0.001% w/v): 0%
% protection against B. cinerea after 7 days (B. cinerea; Table 3, GA 0.01% w/v): 12%
% protection against B. cinerea after 7 days (B. cinerea; Table 13, GA 0.001% w/v): 87%
% protection against B. cinerea after 10 days (B. cinerea; Table 13, GA 0.001% w/v): 47%
% protection against B. cinerea after 14 days (B. cinerea; Table 13, GA 0.001% w/v): 33%
% protection against B. cinerea after 20 days (B. cinerea; Table 13, GA 0.001% w/v): 0%
% protection against P. expansum After 7 days (P. expansum; Table 3, GA 0.01% w/v): 18%
% protection against P. expansum after 6 days (P. expansum; Table 4, GA 0.001% w/v): 15%
% protection against P. expansum after 8 days (P. expansum; Table 4, GA 0.001% w/v): 9%
% protection against P. expansum after 10 days (P. expansum; Table 4, GA 0.001% w/v): 7%

O=C[C@H](O)[C@@H](O)[C@H](O)[C@H](O)C(=O)O [GU, glucuronic acid (sodium salt)]
% protection against B. cinerea after 7 days (B. cinerea; Table 1, GU 0.001% w/v): 75%
% protection against B. cinerea after 10 days (B. cinerea; Table 1, GU 0.001% w/v): 46%
% protection against B. cinerea after 14 days (B. cinerea; Table 1, GU 0.001% w/v): 46%
% protection against B. cinerea after 20 days (B. cinerea; Table 1, GU 0.001% w/v): 21%
% protection against B. cinerea after 7 days (B. cinerea; Table 2, GU 0.001% w/v): 75%
% protection against B. cinerea after 10 days (B. cinerea; Table 2, GU 0.001% w/v): 46%
% protection against B. cinerea after 14 days (B. cinerea; Table 2, GU 0.001% w/v): 46%
% protection against B. cinerea after 20 days (B. cinerea; Table 2, GU 0.001% w/v): 21%

mannans
% protection against B. cinerea after 7 days (B. cinerea; [1]): 100%
% protection against B. cinerea after 10 days (B. cinerea; [1]): 78%
% protection against B. cinerea after 14 days (B. cinerea; [1]): 55%
% protection against B. cinerea after 20 days (B. cinerea; [1]): 16%
% protection against B. cinerea after 7 days (B. cinerea; Table 12, M (mannans) 0.2% w/v): 100%
% protection against B. cinerea after 10 days (B. cinerea; Table 12, M (mannans) 0.2% w/v): 93%
% protection against B. cinerea after 14 days (B. cinerea; Table 12, M (mannans) 0.2% w/v): 68%
% protection against B. cinerea after 20 days (B. cinerea; Table 12, M (mannans) 0.2% w/v): 26%
% protection against B. cinerea after 7 days (B. cinerea; Table 13, M 0.02% w/v): 100%
% protection against B. cinerea after 10 days (B. cinerea; Table 13, M 0.02% w/v): 78%
% protection against B. cinerea after 14 days (B. cinerea; Table 13, M 0.02% w/v): 55%
% protection against B. cinerea after 20 days (B. cinerea; Table 13, M 0.02% w/v): 16%
% protection against B. cinerea after 7 days (B. cinerea; Table 13, M 0.2% w/v): 100%
% protection against B. cinerea after 10 days (B. cinerea; Table 13, M 0.2% w/v): 93%
% protection against B. cinerea after 14 days (B. cinerea; Table 13, M 0.2% w/v): 68%
% protection against B. cinerea after 20 days (B. cinerea; Table 13, M 0.2% w/v): 28%

polygalacturonic acid [PGA, reference compound]
% protection against P. expansum after 6 days (P. expansum; Table 4, PGA 0.001% w/v): 19%
% protection against P. expansum after 8 days (P. expansum; Table 4, PGA 0.001% w/v): 12%
% protection against P. expansum after 10 days (P. expansum; Table 4, PGA 0.001% w/v): 10%
